Reference: the supplement of paper PMC10307832

Experiments:
Experiment in all cases: relative viability (nuclei count vs DMSO), 5 days (fraction); higher = more cells survive
[1] = compound: C1=CC2=C(C=CC(=C2)C=C3C(=O)NC(=NCC4=CC=CS4)S3)N=C1 [RO-3306] + COc1cc2c(Oc3ccc(NC(=O)C4(C(=O)Nc5ccc(F)cc5)CC4)cc3F)ccnc2cc1OCCCN1CCOCC1 [Foretinib] (partner 0.25 µM)
Summary of the method: (§1)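 Values are medians from duplicate plates. Each reflects relative viability, defined as the nuclei count of treated wells over that of vehicle wells. Lung cancer cell lines in 1536-well plates were pin-tool dosed one day after seeding with one drug alone or with a fixed anchor-drug dose plus five library-drug doses (not always all listed) in √10 steps, then fixed, stained and imaged at 4× after 5 days.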

[2] = compound: C1=CC2=C(C=CC(=C2)C=C3C(=O)NC(=NCC4=CC=CS4)S3)N=C1 [RO-3306] + Nc1ncn([C@H]2C[C@H](O)[C@@H](CO)O2)c(=O)n1 [Decitabine] (partner 2 µM)
Summary of the method: as §1

[3] = compound: O=S(=O)(c1ccccc1)N(CC(F)(F)F)c1ccc(C(O)(C(F)(F)F)C(F)(F)F)cc1 + C[C@@H](Oc1cc(-c2cnn(C3CCNCC3)c2)cnc1N)c1c(Cl)ccc(F)c1Cl [Crizotinib] (partner 1 µM)
Summary of the method: as §1

[4] = compound: O=S(=O)(c1ccccc1)N(CC(F)(F)F)c1ccc(C(O)(C(F)(F)F)C(F)(F)F)cc1 + NC(=O)Nc1cc(-c2cccc(F)c2)sc1C(=O)N[C@H]1CCCNC1 [AZD7762] (partner 0.2 µM)
Summary of the method: as §1

[5] = compound: O=S(=O)(c1ccccc1)N(CC(F)(F)F)c1ccc(C(O)(C(F)(F)F)C(F)(F)F)cc1 + CCNC(=O)c1noc(-c2cc(C(C)C)c(O)cc2O)c1-c1ccc(CN2CCOCC2)cc1 [Luminespib] (partner 0.01 µM)
Summary of the method: as §1

| Cell Line | relative viability ([1]; first compound 0.01 µM) | relative viability ([1]; first compound 0.03162 µM) | relative viability ([1]; first compound 0.1 µM) | relative viability ([1]; first compound 0.3162 µM) | relative viability ([1]; first compound 1 µM) | relative viability ([2]; first compound 0.01 µM) | relative viability ([2]; first compound 0.03162 µM) | relative viability ([2]; first compound 0.1 µM) | relative viability ([2]; first compound 0.3162 µM) | relative viability ([2]; first compound 1 µM) | relative viability ([3]; first compound 0.8 µM) | relative viability ([3]; first compound 2.53 µM) | relative viability ([3]; first compound 8 µM) | relative viability ([4]; first compound 0.8 µM) | relative viability ([4]; first compound 2.53 µM) | relative viability ([4]; first compound 8 µM) | relative viability ([5]; first compound 0.8 µM) | relative viability ([5]; first compound 2.53 µM) | relative viability ([5]; first compound 8 µM) |
| --- | --- | --- | --- | --- | --- | --- | --- | --- | --- | --- | --- | --- | --- | --- | --- | --- | --- | --- | --- |
| NCI-H1975 | 0.975 | 1 | 1.02 | 0.985 | 0.793 | 0.336 | 0.386 | 0.376 | 0.405 | 0.5 | 1.03 | 1.01 | 0.919 | 0.632 | 0.519 | 0.669 | 0.205 | 0.201 | 0.311 |
| NCI-H1993 | 0.924 | 0.794 | 0.789 | 0.727 | 0.809 | 0.616 | 0.493 | 0.486 | 0.575 | 0.657 | 0.855 | 0.686 | 0.799 | 0.69 | 0.657 | 0.774 | 0.874 | 0.577 | 0.721 |
| NCI-H2085 | 0.866 | 0.766 | 0.78 | 1.11 | 0.94 | 0.54 | 0.506 | 0.463 | 0.539 | 0.578 | 0.836 | 0.852 | 0.844 | 0.941 | 0.799 | 0.913 | 0.46 | 0.371 | 0.428 |
| NCI-H2087 | 0.985 | 1.01 | 1.13 | 1.24 | 0.982 | 0.296 | 0.276 | 0.253 | 0.251 | 0.25 | 1.11 | 0.841 | 0.918 | 1.4 | 1.31 | 1.31 | 0.17 | 0.146 | 0.205 |
| NCI-H2126 | 1.58 | 0.914 | 1.26 | 1.19 | 1.01 | 0.528 | 0.561 | 0.637 | 0.586 | 0.57 | 1.08 | 1.02 | 1.03 | 1.19 | 1.1 | 0.999 | 0.994 | 0.83 | 0.831 |
| NCI-H2170 | 0.929 | 0.925 | 0.98 | 1.11 | 0.985 | 0.473 | 0.433 | 0.471 | 0.458 | 0.486 | 1.25 | 1.19 | 1.21 | 0.994 | 0.817 | 0.961 | 0.855 | 0.474 | 0.489 |
